Measured values: patent US10266544B2, “Aryl substituted aminomethyl spectinomycin analogs as antibacterial agents” (ST. JUDE CHILDREN'S RESEARCH HOSPITAL, INC., priority 2013, dated 2019)
≈ marks a conversion by molar mass, not a printed value. Where a name gives a salt, the structure may show the parent alone. Read-outs that look alike come from different tables or passages of the source.

Assays:
Format in all cases: cell-based
[1] = system: Bacillus anthracis, Sterne 34F2; assay: microbe, parasite or virus in culture; settings: STERNE34F2, read-out: MIC B.a.
[2] = system: Bacillus subtilis (ATCC 23857); assay: MIC determination, microbroth dilution; settings: ATCC23857; Bacillus subtilis (ATCC 23857); read-out: MIC B.s.
[3] = system: Enterococcus faecalis (ATCC 33186); assay: MIC determination, microbroth dilution; settings: ATCC33186; Enterococcus faecalis (ATCC 33186); read-out: MIC E.f.
[4] = system: Staphylococcus aureus (ATCC 29213); assay: MIC determination, microbroth dilution; settings: ATCC29213; Staphylococcus aureus (ATCC 29213); read-out: MIC S.a.
[5] = system: MRSA, Staphylococcus aureus (NRS70); assay: MIC determination, microbroth dilution; settings: Staphylococcus aureus (NRS70); read-out: MIC MRSA
[6] = system: Streptococcus pneumoniae (R6); assay: MIC determination, microbroth dilution
[7] = system: Streptococcus pyogenes (ATCC 700294); assay: MIC determination, microbroth dilution; settings: ATCC700294; Streptococcus pyogenes (ATCC 700294); read-out: MIC S. py.
[8] = system: M. tuberculosis clinical isolates; assay: microbe, parasite or virus in culture; settings: Mycobacterium tuberculosis, H37RV, read-out: MIC H37Rv
[9] = system: acinetobacter baumannii (ATCC 19606); assay: MIC determination, microbroth dilution; settings: ATCC19606
[10] = system: Burkholderia cepacia (ATCC 25416); assay: MIC determination, microbroth dilution; settings: Burkholderia cepacia, ATCC25416, read-out: MIC B.c., Burkholderia cepacia (ATCC 25416)
[11] = system: Escherichia coli (ATCC 700926); assay: MIC determination, microbroth dilution
Description: MICs were determined using the microbroth dilution method according to Clinical Laboratory Standards Institute (CLSI; National, C. F. C. L. S., Methods for Dilution Antimicrobial Susceptibility Tests for Bacteria Grow aerobically-Seventh Edition: Approved Standard M7-A7, CLSI, Wayne, Pa., USA, 2008) and were read by visual inspection. Two fold serial dilutions of antibiotic in 100 μL of the appropriate broth media were first prepared in 96-well round bottom microtiter plates (Nalge Nunc International, Rochester, N.Y., USA). An equivalent volume (100 μL) of bacterial broth inocula containing approximately 10^5 bacterial cfu/mL was added to each well to give final concentrations of drug starting at 200 μg/mL and the plates were incubated aerobically at 37° C. M. tuberculosis microtiter plates were incubated for 7 days and all other strains were incubated overnight. After incubations, in all cases the MIC was recorded as the lowest concentration of drug that prevented bacterial growth.

E. coli K12 ΔtolC = assay: microbe, parasite or virus in culture; settings: Escherichia coli, read-out: MIC E.c. Δtolc
[12] = system: Klebsiella pneumoniae (ATCC 33495); assay: MIC determination, microbroth dilution; settings: ATCC33495
[13] = system: Pseudomonas aeruginosa (PA01); assay: MIC determination, microbroth dilution
[14] = system: Proteus mirabilis (ATCC 25933); assay: MIC determination, microbroth dilution; settings: ATCC25933
[15] = system: Proteus vulgaris (ATCC 33420); assay: MIC determination, microbroth dilution; settings: ATCC33420
[16] = system: Stenotrophomonas maltophilia (ATCC 13637); assay: MIC determination, microbroth dilution; settings: ATCC13637; Stenotrophomonas maltophilia (ATCC 13637); read-out: MIC S.m.
[17] = system: Streptococcus pneumoniae clinical isolates representing several serotypes; assay: MIC determination, Streptococcus pneumoniae panel of clinical isolates (Table 7); settings: Streptococcus pneumoniae
[18] = Streptococcus pneumoniae (R6), read-out: MIC S. pn.
[19] = ATCC700926, Escherichia coli (ATCC 700926), read-out: MIC E.c.

| SMILES | MIC [1] [µg/mL] | MIC [2] [µg/mL] | MIC [3] [µg/mL] | MIC [4] [µg/mL] | MIC [5] [µg/mL] | MIC [6, 18] [µg/mL] | MIC [7] [µg/mL] | MIC [8] [µg/mL] | other results |
| --- | --- | --- | --- | --- | --- | --- | --- | --- | --- |
| CN[C@@H]1[C@H](O)[C@H](NC)C2O[C@]3(O)C(OC2[C@H]1O)O[C@H](C)C[C@@]3(O)CNCc1ccc2ccccc2c1 (stereo partly shown) [compound 39] | > 200 | 25 (≈ 49.6 µM) | 50 (≈ 99.3 µM) | 100 (≈ 199 µM) | 100 (≈ 199 µM) | 12.5 (≈ 24.8 µM) | 12.5 (≈ 24.8 µM) | 50 (≈ 99.3 µM) | – |
| CN[C@@H]1[C@H](O)[C@H](NC)C2O[C@]3(O)C(OC2[C@H]1O)O[C@H](C)C[C@@]3(O)CNCc1ccc(Cc2ccccc2)cc1 (stereo partly shown) [compound 44] | > 200 | 25 (≈ 46 µM) | 25 (≈ 46 µM) | 50 (≈ 92 µM) | 25 (≈ 46 µM) | 6.25 (≈ 11.5 µM) | 3.13 (≈ 5.76 µM) | 100 (≈ 184 µM) | – |
| CN[C@@H]1[C@H](O)[C@H](NC)C2O[C@]3(O)C(OC2[C@H]1O)O[C@H](C)C[C@@]3(O)CNCc1ccc(-c2ccccc2)cc1 (stereo partly shown) [compound 40] | > 200 | 50 (≈ 94.4 µM) | 25 (≈ 47.2 µM) | 100 (≈ 189 µM) | 100 (≈ 189 µM) | 12.5 (≈ 23.6 µM) | 6.25 (≈ 11.8 µM) | 100 (≈ 189 µM) | – |
| CN[C@@H]1[C@H](O)[C@H](NC)C2O[C@]3(O)C(OC2[C@H]1O)O[C@H](C)C[C@@]3(O)CNCc1ccc(C)o1 (stereo partly shown) [compound 46] | > 200 | 50 (≈ 109 µM) | 100 (≈ 219 µM) | 50 (≈ 109 µM) | > 200 | 12.5 (≈ 27.3 µM) | 12.5 (≈ 27.3 µM) | 25 (≈ 54.6 µM) | – |
| CN[C@@H]1[C@H](O)[C@H](NC)[C@H]2O[C@]3(O)[C@H](O[C@@H]2[C@H]1O)O[C@H](C)C[C@@]3(O)CNCc1ccc(SC)cc1 [compound 68, 3′-(R)-3′-[(4-(methylthio)benzylaminomethyl)]dihydrospectinomycin trihydrobromide] | 25 | 25 | – | 25 | 50 | 1.6 | 3.1 | – | MIC [9]: > 200 µg/mL; MIC [10]: > 200 µg/mL; MIC [11, 19]: 50 µg/mL; MIC (E. coli K12 ΔtolC): 12.5 µg/mL; MIC [12]: 100 to 200 µg/mL; MIC [13]: 200 µg/mL; MIC [14]: > 200 µg/mL; MIC [15]: > 200 µg/mL; MIC [16]: 25 µg/mL |
| CN[C@@H]1[C@H](O)[C@H](NC)C2O[C@]3(O)C(OC2[C@H]1O)O[C@H](C)C[C@@]3(O)CNCc1cccc(C(=O)OC)c1 (stereo partly shown) [compound 41] | > 200 | 50 (≈ 97.7 µM) | 200 (≈ 391 µM) | 200 (≈ 391 µM) | 200 (≈ 391 µM) | 50 (≈ 97.7 µM) | 50 (≈ 97.7 µM) | 50 (≈ 97.7 µM) | – |
| CN[C@@H]1[C@H](O)[C@H](NC)[C@H]2O[C@]3(O)[C@H](O[C@@H]2[C@H]1O)O[C@H](C)C[C@@]3(O)CNCc1cncnc1 [compound 66, 3′-(R)-3′-[(pyrimidin-5-ylmethyl)aminomethyl]dihydrospectinomycin tetrahydrobromide] | 100 | 200 | – | > 200 | > 200 | 0.8 | 100 | – | MIC [9]: > 200 µg/mL; MIC [10]: > 200 µg/mL; MIC ([11]; Escherichia coli, ATCC700926, read-out: MIC E.c.): 50 µg/mL; MIC (E. coli K12 ΔtolC): 25 to 50 µg/mL; MIC [12]: 100 to 200 µg/mL; MIC [13]: > 200 µg/mL; MIC [14]: > 200 µg/mL; MIC [15]: > 200 µg/mL; MIC [16]: 100 µg/mL |
| CN[C@@H]1[C@H](O)[C@H](NC)C2O[C@]3(O)C(OC2[C@H]1O)O[C@H](C)C[C@@]3(O)CNCc1cccn1C (stereo partly shown) [compound 48] | > 200 | 12.5 (≈ 27.4 µM) | > 200 | 200 (≈ 438 µM) | 200 (≈ 438 µM) | 100 (≈ 219 µM) | 200 (≈ 438 µM) | 200 (≈ 438 µM) | – |
| CN[C@@H]1[C@H](O)[C@H](NC)C2O[C@]3(O)C(OC2[C@H]1O)O[C@H](C)C[C@@]3(O)CNCc1ccc(OC)c2c1CCCC2 (stereo partly shown) [compound 45] | > 200 | 50 (≈ 93 µM) | 50 (≈ 93 µM) | 100 (≈ 186 µM) | 200 (≈ 372 µM) | 25 (≈ 46.5 µM) | 25 (≈ 46.5 µM) | 200 (≈ 372 µM) | – |
| CN[C@@H]1[C@H](O)[C@H](NC)C2O[C@]3(O)C(OC2[C@H]1O)O[C@H](C)C[C@@]3(O)CNCc1ccc(CO)o1 (stereo partly shown) [compound 42] | > 200 | 50 (≈ 106 µM) | 200 (≈ 422 µM) | 200 (≈ 422 µM) | > 200 | 50 (≈ 106 µM) | 50 (≈ 106 µM) | 25 (≈ 52.8 µM) | – |
| CN[C@@H]1[C@H](O)[C@H](NC)[C@H]2O[C@]3(O)[C@H](O[C@@H]2[C@H]1O)O[C@H](C)C[C@@]3(O)CNCc1ccc(S(C)(=O)=O)cc1 [compound 69, 3′-(R)-3′-[(4-(methylsulfonyl)benzylaminomethyl)]dihydrospectino-mycin trihydrobromide] | > 200 | > 200 | – | > 200 | > 200 | 100 | 100 | – | MIC [9]: > 200 µg/mL; MIC [10]: > 200 µg/mL; MIC [11, 19]: 50 to 100 µg/mL; MIC (E. coli K12 ΔtolC): 12.5 to 25 µg/mL; MIC [12]: > 200 µg/mL; MIC [13]: > 200 µg/mL; MIC [14]: > 200 µg/mL; MIC [15]: > 200 µg/mL; MIC [16]: > 200 µg/mL |
| CN[C@@H]1[C@H](O)[C@H](NC)C2O[C@]3(O)C(OC2[C@H]1O)O[C@H](C)C[C@@]3(O)CNCc1cn(C)c2ccccc12 (stereo partly shown) [compound 37] | > 200 | 12.5 (≈ 24.7 µM) | 50 (≈ 98.7 µM) | 50 (≈ 98.7 µM) | 200 (≈ 395 µM) | 25 (≈ 49.3 µM) | 12.5 (≈ 24.7 µM) | 50 (≈ 98.7 µM) | – |
| CN[C@@H]1[C@H](O)[C@H](NC)C2O[C@]3(O)C(OC2[C@H]1O)O[C@H](C)C[C@@]3(O)CNCc1cccc(C(F)(F)F)c1 (stereo partly shown) [compound 50] | > 200 | 12.5 (≈ 24 µM) | 25 (≈ 47.9 µM) | 50 (≈ 95.9 µM) | 50 (≈ 95.9 µM) | 3.13 (≈ 6 µM) | 1.56 (≈ 2.99 µM) | – | – |
| CN[C@@H]1[C@H](O)[C@H](NC)[C@H]2O[C@]3(O)[C@H](O[C@@H]2[C@H]1O)O[C@H](C)CC3(O)CN (stereo partly shown) [mSPC, 3′-aminomethyl-3′-hydroxy spectinomycin, reference compound] | – | – | – | – | – | – | – | – | MIC ([6]; Streptococcus pneumoniae, S. pneumoniae R6, Drug Susceptible, read-out: MIC R6): 50 µg/mL (≈ 138 µM); MIC ([17]; BAA1407, S. pneumoniae BAA-1407, Macrolide Resistant, read-out: MIC BAA-1407): 200 µg/mL (≈ 550 µM); MIC ([17]; S. pneumoniae A66.1x, Drug Susceptible, read-out: MIC A66.1x): 50 µg/mL (≈ 138 µM); MIC ([17]; S. pneumoniae BHN97x, Drug Susceptible, read-out: MIC BHN97x): 50 µg/mL (≈ 138 µM); MIC ([17]; S. pneumoniae D39X, Drug Susceptible, read-out: MIC D39X): 100 µg/mL (≈ 275 µM); MIC ([17]; S. pneumoniae Daw7, PenG Resistant, read-out: MIC Daw7): 100 µg/mL (≈ 275 µM); MIC ([17]; S. pneumoniae Daw8, PenG Resistant, read-out: MIC Daw8): 100 µg/mL (≈ 275 µM); MIC ([17]; S. pneumoniae Daw9, PenG Resistant, read-out: MIC Daw9): 50 µg/mL (≈ 138 µM); MIC ([17]; S. pneumoniae Daw62, PenG Resistant, read-out: MIC Daw62): 100 µg/mL (≈ 275 µM); MIC ([17]; S. pneumoniae Daw64, PenG Resistant, read-out: MIC Daw64): 100 µg/mL (≈ 275 µM); MIC ([17]; S. pneumoniae OVA6, Macrolide Resistant, read-out: MIC OVA6): 50 µg/mL (≈ 138 µM); MIC ([17]; S. pneumoniae T4X, Drug Susceptible, read-out: MIC T4X): 50 µg/mL (≈ 138 µM) |
| CN[C@@H]1[C@H](O)[C@H](NC)[C@H]2O[C@]3(O)[C@H](O[C@@H]2[C@H]1O)O[C@H](C)C[C@@]3(O)CNCc1cnccn1 [compound 67, 3′-(R)-3′-[(pyrazin-2-ylmethyl)aminomethyl]dihydrospectinomycin tetrahydrobromide] | 200 | 100 | – | > 200 | > 200 | 6.3 | 100 | – | MIC [9]: > 200 µg/mL; MIC [10]: > 200 µg/mL; MIC [11, 19]: 50 to 100 µg/mL; MIC (E. coli K12 ΔtolC): 25 to 50 µg/mL; MIC [12]: 100 µg/mL; MIC [13]: > 200 µg/mL; MIC [14]: > 200 µg/mL; MIC [15]: > 200 µg/mL; MIC [16]: 100 µg/mL |
